The text below walks through data of article PMC7414031, “Correlation between hemolytic activity, cytotoxicity and systemic in vivo toxicity of synthetic antimicrobial peptides” (Scientific Reports, 2020).

Data set [1] is described as follows: in vitro. The format is cell-based, human. As to conditions: human. How it is done: (§1) The haemolytic activity of the 24 structurally related peptides (Table 1) was evaluated in erythrocytes from four different species (human, canine, bovine and rat) employing standard methodology. The subsequent release of haemoglobin was used to assess haemolytic activity as function of peptide and peptidomimetic concentration, with concentrations ranging from 0.15 to 150 µM (Presented in whole in Supplementary information Table S1–S4).
(§2) Human and rat (Sprague–Dawley) blood samples were purchased by Bioreclamation IVT (Westbury, NY, USA), collected in tubes containing heparin as anticoagulant and stored at 4 °C before use. Dog and bovine whole blood was collected from in-house animals at Zoetis Animal Health, Kalamazoo, Michigan and stored at 4 °C in tubes containing heparin as anticoagulant. 10 mL of each whole blood sample were centrifuged at 1,500 × g for 5 min and the resulting plasma fraction was removed from the samples. The pellets were washed with an equal volume (10 mL) of saline, mixing by inversion. The centrifuging and washing steps were repeated 5 times. After the last washing step, a volume of PBS was added, and the resulting samples were diluted 1:10 with PBS to yield an RBC concentration of ~ 5 × 10^8 RBC/mL. The assay was performed in a 384-well polypropylene microplate (Greiner 784201, Greiner Bio-One International, GMBH) through a Bravo Liquid Handling Platform 384 system (Agilent Technologies, Santa Clara, CA, USA) according to the previously published procedures. The compounds were tested in serial 1:1 dilutions in PBS, with final concentrations ranging from 150 to 1.2 µM. Melittin was used as reference lytic peptide. 1% TritonX100 and PBS were used as positive and negative (diluent) controls, respectively. The final concentrations were obtained by adding to the wells 7 µL of each solution, melittin or PBS, followed by 63 µL of RBCs to each well. The plate was sealed, shaken on a plate shaker for 20 s, incubated for one hour at 37 °C. Finally, it was centrifuged at 1,500 × g for 5 min at room temperature. 60 µL of supernatants were removed from all plate wells via a Bravo 384 robot and transferred to a flat-bottomed 384-well plate (Greiner UV-Star #7810801, Greiner Bio-One International, GMBH). The plate was centrifuged at 1,000 g for 1 min to remove air bubbles and optical density was measured at 405 nm using a plate reader. Percentage of haemolysis was calculated with the following equation: %haemolysis=(absorbance of test sample)-absorbance of diluent/absorbance of positive control-absorbance of diluent×100.

Data set [2] relates to human erythrocytes. Description: in vitro. The class given is cell-based. As to conditions: for IC10 haemolysis: human erythrocytes; for IC50: red cells of human. How it is done:
as §1, §2

Data set [3] can be described thus: in vitro. The format is cell-based, dog. As to conditions: dog. The procedure:
as §1, §2

The subject of data set [4] is canine erythrocytes. Description: in vitro. The class given is cell-based, dog. The following applies: for IC10 haemolysis: canine erythrocytes; for IC50: red cells of canine. The procedure: as §1, §2
Data set [5] in a line: in vitro. The format is cell-based, rat (Sprague–Dawley). As to conditions: Sprague-Dawley, rat. How it is done: as §1, §2
Data set [6] concerns rat erythrocytes. Nature of the data set: in vitro. The class given is cell-based, rat (Sprague–Dawley). As to conditions: for IC10 haemolysis: rat erythrocytes; for IC50: red cells of rat. The procedure: as §1, §2
Data set [7] in a line: in vitro. The class given is cell-based, bovine. As to conditions: bovine. The procedure:
as §1, §2

Data set [8] relates to bovine erythrocytes. Nature of the data set: in vitro. The format is cell-based. As to conditions: bovine erythrocytes. How it is done: as §1, §2
The subject of data set [9] is Staphylococcus pseudintermedius. As to conditions: cited from earlier work.
The subject of data set [10] is Staphylococcus aureus. More on the design: method as in PMID 30842436. As to conditions: cited from earlier work.
For data set [11], the system named is Pseudomonas aeruginosa. Details: method as in PMID 30842436. The following applies: cited from earlier work.

Values after ≈ are worked out from the molar mass of the structure shown. Peptide text beside a SMILES is read from it.

In the case of `CCCC[C@H](NC(=O)[C@H](CCCCN)NC(=O)[C@H](CCCCN)NC(=O)[C@@H](N)CCCCN)C(=O)N[C@@H](Cc1cccc2ccccc12)C(=O)N[C@@H](Cc1ccccc1)C(=O)N[C@@H](Cc1cccc2ccccc12)C(N)=O` [Compound 20, Lys-Lys-Lys-Nle-(1-Nal)Ala-Phe-(1-Nal)Ala] (HELM PEPTIDE1{K.K.K.[Nle].[O=C([C@H](Cc1cccc2ccccc12)N[*:1])[*:2]].F.[O=C([C@H](Cc1cccc2ccccc12)N[*:1])[*:2]].[am]}$$$$V2.0), the hemolysis at 1 h, 150 µM was 27.5% in [1], 36% in [3], < 8% in [5] and 20.1% in [7]. In addition, the IC10 haemolysis in data set [2] was 91.3 µM; in data set [4] it was 45.8 µM; in data set [6], > 150 µM; in [8], 94.7 µM. Also, the IC50 in [2], in data set [4] and in data set [6] was > 150 µM in each case. Besides, the “MIC against Staphylococcus pseudintermedius” value in data set [9] is 16 to 32 µg/mL. The “MIC against Staphylococcus aureus” value in [10] was > 64 µg/mL. Moreover, the “MIC against Pseudomonas aeruginosa” value in data set [11] is listed as 16 µg/mL (≈ 15.1 µM).

As to `CC(C)C[C@@H](NC(=O)[C@H](CCCCN)NC(=O)[C@H](CCCCN)NC(=O)[C@@H](N)CCCCN)C(=O)N[C@H](Cc1ccc2ccccc2c1)C(=O)N[C@H](Cc1ccccc1)C(=O)N[C@H](Cc1ccc2ccccc2c1)C(N)=O` [Compound 12, Lys-Lys-Lys-Leu-(2-Nal)Ala-Phe-(2-Nal)Ala] (HELM PEPTIDE1{K.K.K.[dL].[O=C([C@@H](Cc1ccc2ccccc2c1)N[*:1])[*:2]].[dF].[O=C([C@@H](Cc1ccc2ccccc2c1)N[*:1])[*:2]].[am]}$$$$V2.0), the hemolysis at 1 h, 150 µM was 43.5% in [1], 50.2% in data set [3], 17.9% in [5] and < 8% in data set [7]. For the same compound, the IC10 haemolysis in data set [2] was found to be 34.6 µM; in data set [4], 29.3 µM; in data set [6] it was 105.8 µM. Further, the IC50 in data set [2], in data set [4] and in data set [6] was > 150 µM each time. For the same compound, in data set [9], the “MIC against Staphylococcus pseudintermedius” value is 2 to 4 µg/mL. For the same compound, the “MIC against Staphylococcus aureus” value in [10] is 8 to 16 µg/mL. Besides, in data set [11], the “MIC against Pseudomonas aeruginosa” value is 32 µg/mL (≈ 30.3 µM).

With `CCCC[C@H](NC(=O)[C@H](CCCCN)NC(=O)[C@H](CCCCN)NC(=O)[C@@H](N)CCCCN)C(=O)N[C@@H](Cc1ccc2ccccc2c1)C(=O)N[C@@H](Cc1ccc(O)cc1)C(=O)N[C@@H](Cc1ccc2ccccc2c1)C(N)=O` [Compound 22, Lys-Lys-Lys-Nle-(2-Nal)Ala-Tyr-(2-Nal)Ala] (HELM PEPTIDE1{K.K.K.[Nle].[O=C([C@H](Cc1ccc2ccccc2c1)N[*:1])[*:2]].Y.[O=C([C@H](Cc1ccc2ccccc2c1)N[*:1])[*:2]].[am]}$$$$V2.0), the hemolysis at 1 h, 150 µM in data set [1] was 23.7%; in data set [3] it was 83%; in data set [5] it was 24.2%; in data set [7], < 8%. Besides, the IC10 haemolysis was found to be 88.3 µM in data set [2], 30.9 µM in data set [4] and 83.0 µM in data set [6]. Further, the IC50 is > 150 µM in data set [2], 71.2 µM in data set [4] and > 150 µM in [6]. Moreover, the “MIC against Staphylococcus pseudintermedius” value in [9] was 2 to 4 µg/mL. The “MIC against Staphylococcus aureus” value in data set [10] was 64 µg/mL (≈ 59.7 µM). The “MIC against Pseudomonas aeruginosa” value in data set [11] is recorded as 64 µg/mL (≈ 59.7 µM).

As to `CC(C)C[C@@H](NC(=O)[C@H](CCCCN)NC(=O)[C@@H](Cc1ccc2ccccc2c1)NC(=O)[C@@H](Cc1ccccc1)NC(=O)[C@H](N)Cc1ccc2ccccc2c1)C(=O)N[C@@H](CCCCN)C(=O)N[C@@H](CCCCN)C(N)=O` [Compound 3, (2-Nal)Ala-Phe-(2-Nal)Ala-Lys-Leu-Lys-Lys] (HELM PEPTIDE1{[N[C@H](Cc1ccc2ccccc2c1)C(=O)[*:2]].[dF].[O=C([C@@H](Cc1ccc2ccccc2c1)N[*:1])[*:2]].K.[dL].K.K.[am]}$$$$V2.0), the hemolysis at 1 h, 150 µM is < 8% in [1], 10.5% in data set [3], < 8% in [5] and < 8% in [7]. In addition, the IC10 haemolysis in data set [2] was > 150 µM; in data set [4] it was 118.3 µM; in [6], > 150 µM. Besides, the IC50 in [2], in [4] and in [6] was > 150 µM in each case. In addition, the “MIC against Staphylococcus pseudintermedius” value in data set [9] is listed as 16 µg/mL (≈ 15.1 µM). For the same compound, the “MIC against Staphylococcus aureus” value in data set [10] is 32 to 64 µg/mL. In addition, the “MIC against Pseudomonas aeruginosa” value in [11] is > 64 µg/mL.

Consider `CC(C)C[C@@H](NC(=O)[C@H](CCCCN)NC(=O)[C@@H](N)CCCCN)C(=O)N[C@@H](CCCCN)C(=O)N[C@H](Cc1cccc2ccccc12)C(=O)N[C@H](Cc1ccccc1)C(=O)N[C@H](Cc1cccc2ccccc12)C(N)=O` [Compound 10, Lys-Lys-Leu-Lys-(1-Nal)Ala-Phe-(1-Nal)Ala] (HELM PEPTIDE1{K.K.[dL].K.[O=C([C@@H](Cc1cccc2ccccc12)N[*:1])[*:2]].[dF].[O=C([C@@H](Cc1cccc2ccccc12)N[*:1])[*:2]].[am]}$$$$V2.0), for which the hemolysis at 1 h, 150 µM in data set [1] is < 8%; in data set [3], 36.3%; in [5] it was < 8%; in [7], < 8%. In addition, the IC10 haemolysis in [2] was > 150 µM; in [4], 43.4 µM; in data set [6], > 150 µM. In addition, the IC50 in data set [2], in data set [4] and in [6] was > 150 µM throughout. In data set [9], the “MIC against Staphylococcus pseudintermedius” value is 4 to 8 µg/mL. Moreover, the “MIC against Staphylococcus aureus” value in data set [10] is 16 µg/mL (≈ 15.1 µM). The “MIC against Pseudomonas aeruginosa” value in [11] was 16 to 32 µg/mL.

Consider `CC(C)C[C@H](NC(=O)[C@H](CCCCN)NC(=O)[C@H](CCCCN)NC(=O)[C@@H](N)CCCCN)C(=O)N[C@@H](Cc1cccc2ccccc12)C(=O)N[C@@H](Cc1ccc(O)cc1)C(=O)N[C@@H](Cc1cccc2ccccc12)C(N)=O` [Compound 19, Lys-Lys-Lys-Leu(1-Nal)Ala-Tyr-(1-Nal)Ala] (HELM PEPTIDE1{K.K.K.L.[O=C([C@H](Cc1cccc2ccccc12)N[*:1])[*:2]].Y.[O=C([C@H](Cc1cccc2ccccc12)N[*:1])[*:2]].[am]}$$$$V2.0), for which the hemolysis at 1 h, 150 µM was 82.7% in [1], 101% in data set [3], 101% in [5] and < 8% in [7]. Moreover, the “Haemolysis at 80 µM (in words)” value in data set [2], in [4] and in data set [6] was “near total haemolysis” in each case. The values for the IC10 haemolysis in data set [2], in data set [4] and in data set [6] were 13.5 µM, 13.2 µM and 45.0 µM, respectively. In addition, the IC50 in [2] came to 51.1 µM; in [4], 20.8 µM; in data set [6], 74.9 µM. Further, the “MIC against Staphylococcus aureus” value in data set [10] is recorded as > 64 µg/mL. In addition, in data set [11], the “MIC against Pseudomonas aeruginosa” value was > 64 µg/mL.

For orientation: IC50 means the point on the concentration scale where inhibition reaches its midpoint.
